Molecules are shown by their SMILES.

In assay [1] the test system is HOS (human osteogenic sarcoma). Description: Calcein AM cytotoxicity assay, HOS. The format is cell-based. As to conditions: 72 hours incubation. The source says:
(§1) Because toxic compounds negatively influence metabolic processes in cells, many standard cytotoxicity assays are based on measurement of metabolisation rate of various artificial substrates. Resulting product is then quantified e.g. by means of spectrometry. The assays can be easily modified for use in 96-well plates. For evaluation of cytotoxic effect of the novel substituted 9-substituted cytokinin derivatives of this invention, a microtiter assay based on quantification of metabolisation of Calcein AM was used. The assay is widely used in drug screening programs and in chemosensitivity testing. In the living cells, Calcein AM is enzymatically hydrolysed and accumulation of resulting calcein is manifested by green fluorescence.
(§2) In the routine screening the following cell lines have been used: CEM (T-lymphoblastoid leukemia), HL-60 (promyelocytic leukemia), K-562 (human erythroleukemia), MCF-7 (breast carcinoma), HOS (human osteogenic sarcoma), and G-361 (human malignant melanoma). Normal human fibroblasts BJ were used as a control for routine screening of the compounds. The cells were kept in Nunc/Corning 80 cm^2 plastic bottles and grown in cell culture medium (DMEM containing 5 g/l glucose, 2 mM glutamine, 100 U/ml penicilline, 100 μg/ml streptomycine, 10% fetal bovine serum and sodium hydrogencarbonate), the compounds were prepared according to the procedure of the present invention.
(§3) The cell suspensions were prepared and diluted according to the particular cell type and the expected target cell density (2.500-30.000 cells per well based on cell growth characteristics) and pippetted (80 μl) into 96-well plates. Inoculates were allowed a pre-incubation period of 24 hours at 37° C. and 5% CO2 for stabilisation. Tested compound was added in total volume of 20 μl of water at time zero. Usually, test compound was evaluated at six 3-fold dilutions. In routine testing, the highest concentration tested was 166.7 μM. All drug concentrations were tested in triplicates. Incubations of cells with the test compounds lasted for 72 hours at 37° C., in 5% CO2 atmosphere and 100% humidity. At the end of incubation period Calcein AM in PBS was added into final concentration of 1 μg/ml. After another 1 hour of incubation fluorescence (FD) was measured with the Labsystem FIA Reader Fluoroscan Ascent (Microsystems). Tumor cell survival (TCS) was estimated using the following equation: […]=(FDdrug exposed well/FDcontrol well)×100%. The GI50 value, the drug concentration causing 50% reduction of esterase activity, was calculated from the obtained dose response curves (FIG. 1).
(§4) Cytoxicity of novel compounds was tested on panel of cell lines of different histogenetic and species origin (Table 3). […] The effective novel derivatives killed tumour cells in concentrations close to 0.1-50 μM.

The subject of assay [2] is K-562 (human erythroleukemia). Description: Calcein AM cytotoxicity assay, K-562. The class given is cell-based.
Text: as §1, §2, §3, §4

The subject of a further assay is MCF-7 (breast carcinoma). Description: Calcein AM cytotoxicity assay, MCF7. The class given is cell-based. The settings on record: 72 hours incubation.
Text: as §1, §2, §3, §4

Assay [3] concerns Normal human fibroblasts BJ. Description: Calcein AM cytotoxicity assay, BJ. The format is cell-based. As to conditions: 72 hours incubation.
Text: as §1, §2, §3, §4

Assay [4] relates to CEM (T-lymphoblastoid leukemia). Description: Calcein AM cytotoxicity assay, CEM. The format is cell-based. The settings on record: 72 hours incubation, Calcein AM.
Text: as §1, §2, §3, §4

Assay [5] concerns HL-60 (promyelocytic leukemia). Description: Calcein AM cytotoxicity assay, HL60. The class given is cell-based, human.
Text: as §1, §2, §3, §4

For a further assay, the system named is Human lymphocytes. Description: Immunosuppressive activity, 3H-thymidine incorporation in concanavalin A activated lymphocytes. As to conditions: 72 hours, [3H]-TdR incorporation, read-out: Human lymphocytes ED50. The format is cell-based. The source says:
One of the most important parameters of specific cellular immunity is the proliferative response of lymphocytes to antigens or polyclonal mitogens. The majority of normal mammalian peripheral lymphocytes comprise resting cells. Antigens or nonspecific polyclonal mitogens have the capacity to activate lymphoid cells and this is accompanied by dramatic changes of intracellular metabolism (mitochondrial activity, protein synthesis, nucleic acids synthesis, formation of blastic cells and cellular proliferation). […] Variety of in vitro assays was developed to measure proliferative response of lymphocytes. The most commonly used is ^3H-thymidine incorporation method.
During cell proliferation, DNA has to be replicated before the cell is divided into two daughter cells. This close association between cell doublings and DNA synthesis is very attractive for assessing cell proliferation. If labelled DNA precursors are added to the cell culture, cells that are about to divide incorporate the labelled nucleotide into their DNA. Traditionally, those assays usually involve the use of radiolabelled nucleosides, particularly tritiated thymidine ([^3H]-TdR). The amount of [^3H]-TdR incorporated into the cellular DNA is quantified by liquid scintillation counting.
Human heparinized peripheral blood was obtained from healthy volunteers by cubital vein punction. The blood was diluted in PBS (1:3) and mononuclear cells were separated by centrifugation in Ficoll-Hypaque density gradient (Pharmacia, 1.077 g/ml) at 2200 rpm for 30 minutes. Following centrifugation, lymphocytes were washed in PBS and resuspended in cell culture medium (RMPI 1640, 2 mM glutamine, 100 U/ml penicillin, 100 μg/ml streptomycin, 10% fetal calf serum and sodium bicarbonate).
The cells were diluted at target density of 1.100.000 cells/ml and were added by pipette (180 μl) into 96-well microtiter plates. Four-fold dilutions of the intended test concentration were added at time zero in 20 μl aliquots to the microtiter plate wells. Usually, test compound was evaluated at six 4-fold dilutions. In routine testing, the highest well concentration was 266.7 μM. All drug concentrations were examined in duplicates. All wells with exception of unstimulated controls were activated with 50 μl of concanavalin A (25 μg/ml). Incubations of cells with test compounds lasted for 72 hours at 37° C., in 5% CO2 atmosphere and 100% humidity. At the end of incubation period, the cells were assayed by using the [^3H]-TdR:
Cell cultures were incubated with 0.5 μCi (20 μl of stock solution 500 μCi/ml) per well for 6 hours at 37° C. and 5% CO2. The automated cell harvester was used to lyse cells in water and adsorb the DNA onto glass-fiber filters in the format of microtiter plate. The DNA incorporated [^3H]-TdR was retained on the filter while unincorporated material passes through. The filters were dried at room temperature overnight, sealed into a sample bag with 10-12 ml of scintillant. The amount of [^3H]-TdR present in each filter (in cpm) was determined by scintillation counting in a Betaplate liquid scintillation counter. The effective dose of immunosuppressant (ED) was calculated using the following equation: ED=(CCPMdrug exposed well/mean CCPMcontrol wells)×100%. The ED50 value, the drug concentration inhibiting proliferation of 50% of lymphocytes, was calculated from the obtained dose response curves.
To evaluate immunosuppressive activity of substituted adenines, their ability to inhibit polyclonal mitogen induced proliferation of normal human lymphocytes was analyzed (Table 4). […] Effective immunosuppressive dose of new derivatives under in vitro conditions was close to 10-40 μM.
(Dividing cells build labelled thymidine or BrdU into new DNA.)

Assay [6] concerns cytokinin-dependent tobacco callus Nicotiana tabacum L. cv. Wisconsin 38. Description: Growth of cytokinin-dependent tobacco callus. The format is cell-based. The settings on record: for Activity (%) [10^−5 mol · l^−1 KR = 100%]: at concentration with highest activity, relative to control cytokinin; for Concentration with highest activity: tobacco callus fresh weight after four weeks. How it is done:
Cytokinin effect of newly prepared derivatives was tested using cytokinin-dependent tobacco callus. The cytokinin-dependent tobacco callus Nicotiana tabacum L. cv. Wisconsin 38 was maintained at 25° C. in darkness on modified MS medium, containing per 1 liter: 4 μmol of nicotinic acid, 2.4 μmol of pyridoxine hydrochloride, 1.2 μmol of thiamine, 26.6 μmol of glycine, 1.37 μmol of glutamine, 1.8 μmol of myo-inositol, 30 g of sucrose, 8 g of agar, 5.37 μmol of NAA and 0.5 μmol of the compound tested. Subcultivation was carried out every three weeks. Fourteen days before the bioassay, the callus tissue was transferred to the media without 6-benzylaminopurine. The biological activity was determined from the increase of the fresh callus weight after four weeks of cultivation. Five replicates were prepared for each concentration of the compound tested and the entire test was repeated twice. […] The compounds to be tested were dissolved in dimethylsulfoxide (DMSO) and the solution brought up to 10^−3 M with distilled water. […] The stimulatory activity was calculated from the dose-dependent fresh weight callus growth curves.
From the obtained data, the concentration with the highest activity was selected for each compound tested. Relative activity of the compound at this concentration was calculated (Table 5). […]

Assay [7] relates to G-361 (human malignant melanoma). Description: Calcein AM cytotoxicity assay, G-361. As to conditions: 72 hours incubation. The format is cell-based.
Text: as §1, §2, §3, §4

`Cc1ccccc1CNc1ncnc2c1ncn2[C@@H]1O[C@H](COP(=O)(O)O)[C@@H](O)[C@H]1O` [Compound 12, 6-(2-methylbenzylamino)purine riboside-5′-monophosphate]: the GI50 (in general, the concentration giving 50% growth inhibition) in assay [1] is > 167 µM; in [2] (72 hours incubation), > 167 µM; with MCF-7 (breast carcinoma), > 167 µM; in assay [3], > 167 µM; in [4], 14 µM; in assay [5] (72 hours incubation) it was 3.3 µM. Moreover, the EC50 in the assay with Human lymphocytes amounted to 7.3 µM. The “Activity (%) [10^−5 mol · l^−1 KR = 100%]” value (shortened to “Activity (%)”) in assay [6] is 108 ± 4%. The “Concentration with highest activity” value in [6] is 10^−6 mol · l^−1.
Regarding `COc1ccccc1CNc1ncnc2c1ncn2[C@@H]1O[C@H](COP(=O)(O)O)[C@@H](O)[C@H]1O` [Compound 15, 6-(2-methoxybenzylamino)purine riboside-5-monophosphate], the GI50 in [1] is 21.2 µM; in assay [2] (72 hours incubation), 11.2 µM; with MCF-7 (breast carcinoma) it was > 167 µM; in [3] it was > 167 µM; in assay [7], > 167 µM; in assay [4] it was 3.2 µM. Also, the GI50 in assay [5] (72 hours incubation) is 2.3 µM. The “Activity (%)” value in assay [6] is 108 ± 1%. The “Concentration with highest activity” value in assay [6] is listed as 10^−5 mol · l^−1.
As for `COc1cccc(CNc2ncnc3c2ncn3[C@@H]2O[C@H](COP(=O)(O)O)[C@@H](O)[C@H]2O)c1` [Compound 16, 6-(3-methoxybenzylamino)purine riboside-5′-monophosphate], the GI50 in assay [1] is > 167 µM; in assay [2] (72 hours incubation), > 167 µM; in the assay on MCF-7 (breast carcinoma), > 167 µM; in assay [3] it was > 167 µM; in assay [7], > 167 µM; in assay [4] it was 7.6 µM. Besides, the GI50 in assay [5] (72 hours incubation) is 4.9 µM. In assay [6], the “Activity (%)” value was determined as 102 ± 1%. The “Concentration with highest activity” value in [6] is on record as 10^−6 mol · l^−1.
Turning to `O=P(O)(O)OC[C@H]1O[C@@H](n2cnc3c(NCc4ccc(O)cc4)ncnc32)[C@H](O)[C@@H]1O` [Compound 23, 6-(4-hydroxybenzylamino)purine riboside-5′-monophosphate], the GI50 is > 167 µM in assay [1]; > 167 µM in assay [2] (72 hours incubation); > 167 µM in the assay on MCF-7 (breast carcinoma); > 167 µM in assay [3]; > 167 µM in assay [7]; 39.7 µM in [4]. Moreover, the GI50 in [5] (72 hours incubation) is 9.5 µM.
`COc1ccc(O)c(CNc2ncnc3c2ncn3[C@@H]2O[C@H](COP(=O)(O)O)[C@@H](O)[C@H]2O)c1` [Compound 29, 6-(2-hydroxy-5-methoxybenzylamino)purine riboside-5′-monophosphate]: the GI50 in assay [1] was 6.4 µM; in assay [2] (72 hours incubation), 15.4 µM; in the assay with MCF-7 (breast carcinoma) it was 21 µM; in [3], 87.9 µM; in assay [7], 12.3 µM; in [4], 0.9 µM. Further, the GI50 in assay [5] (72 hours incubation) was 0.54 µM.
On to `O=P(O)(O)OC[C@H]1O[C@@H](n2cnc3c(NCc4cc(Cl)ccc4O)ncnc32)[C@H](O)[C@@H]1O` [Compound 47, 6-(2-hydroxy-5-chlorobenzylamino)purine riboside-5′-monophosphate], for which the GI50 in [1] is 10.6 µM; in assay [2] (72 hours incubation), 15.7 µM; with MCF-7 (breast carcinoma) it was 18 µM; in [3] it was 63.4 µM; in assay [7] it was 12.5 µM; in [4], 0.6 µM. Further, in assay [5] (72 hours incubation), the GI50 is 0.47 µM.
On to `O=P(O)(O)OC[C@H]1O[C@@H](n2cnc3c(NCc4cc(F)ccc4O)ncnc32)[C@H](O)[C@@H]1O` [Compound 48, 6-(2-hydroxy-5-fluorobenzylamino)purine riboside-5′-monophosphate], for which the GI50 in [1] is 9.1 µM; in assay [2] (72 hours incubation) it was 13.4 µM; in the assay with MCF-7 (breast carcinoma), 16 µM; in assay [3], 58.7 µM; in assay [7], 10.7 µM; in [4], 0.5 µM. In addition, the GI50 in assay [5] (72 hours incubation) was 0.53 µM.
`Nc1ncnc2c1ncn2[C@@H]1O[C@H](CO)[C@@H](O)[C@H]1O` [adenosine]: the GI50 in [1] (Homo sapiens) is > 167 µM; in assay [2] (Homo sapiens, K562, 72 hours incubation) it was > 167 µM; with MCF-7 (breast carcinoma) (Homo sapiens) it was > 167 µM; in [3] (Homo sapiens, Fibroblast), > 167 µM; in assay [7] (Homo sapiens) it was > 167 µM; in assay [4], > 167 µM. Moreover, the GI50 in assay [5] (Homo sapiens, HL-60, 72 hours incubation) was > 167 µM.
For the molecule `C/C(=C\CNc1ncnc2c1ncn2[C@@H]1O[C@H](CO)[C@@H](O)[C@H]1O)CO` [zeatin riboside, reference compound], the GI50 (in assay [1]; in assay [2] (72 hours incubation); with MCF-7 (breast carcinoma); in assay [3]; in [7]; in assay [4]) was > 167 µM throughout. For the same molecule, the GI50 in assay [5] (72 hours incubation) was > 167 µM.

The values above are taken from patent US9073961B2, “Substitution derivatives of N6 -benzyladenosine-5′-monophosphate, methods of preparation thereof, use thereof as medicaments, and therapeutic preparations containing these compounds” (UNIVERZITA PALACKEHO V OLOMOUCI, priority 2010, dated 2015).
